The record followed here is the OligoGym collection.

Where “and” joins values, the source holds several entries; their conditions need not be identical. Equal entries are not always repeated. HELM strings list units from the 5' end as sugar, base in round brackets, then linkage (d deoxyribose, r ribose, m 2'-O-methyl, p phosphodiester). Strings are as the collection lists them, not checked against the first reports. ss, as = sense and antisense strand; [lna] = locked nucleic acid (LNA); [una] = unlocked nucleic acid; [hna] = hexitol nucleic acid; [s4r] = 4'-thioribose; [fl2r] = 2'-fluoro
Note: test system not given here.

For the series the following is noted: siRNA.
For “RNA1{r(C)p.r(U)p.r(U)p.r(A)p.r(C)p.r(G)p.r(C)p.r(U)p.r(G)p.r(A)p.r(G)p.r(U)p.r(A)p.r(C)p.r(U)p.r(U)p.r(C)p.r(G)p.r(A)p.r(T)p.r(T)}|RNA2{r(U)p.r(C)p.r(G)p.r(A)p.r(A)p.r(G)p.r(U)p.r(A)p.r(C)p.r(U)p.r(C)p.r(A)p.r(G)p.r(C)p.r(G)p.r(U)p.[lna](A)p.r(A)p.r(G)p.r(T)p.r(T)}$$$RNA1{StrandType:ss}|RNA2{StrandType:as}$”, the target mRNA knockdown was determined as 93%. The same measure for “RNA1{r(A)p.r(A)p.r(C)p.r(C)p.r(C)p.r(A)p.r(C)p.r(C)p.r(A)p.r(C)p.r(A)p.r(G)p.r(C)p.m(U)p.m(A)p.r(G)p.r(A)p.r(A)p.r(C)p.r(U)p.r(U)}|RNA2{r(A)p.r(A)p.r(G)p.r(U)p.r(U)p.r(C)p.r(U)p.r(A)p.r(G)p.r(C)p.r(U)p.r(G)p.r(U)p.r(G)p.r(G)p.r(U)p.r(G)p.r(G)p.r(G)p.r(U)p.r(U)}$$$RNA1{StrandType:ss}|RNA2{StrandType:as}$”: 79%; for “RNA1{r(U)p.r(G)p.r(A)p.r(A)p.r(U)p.r(C)p.r(A)p.r(G)p.r(A)p.r(A)p.r(G)p.r(A)p.r(U)p.r(G)p.r(A)p.r(A)p.r(G)p.r(U)p.r(C)p.r(A)p.r(A)}|RNA2{[una](G)p.r(A)p.r(C)p.r(U)p.r(U)p.r(C)p.r(A)p.r(U)p.r(C)p.r(U)p.r(U)p.r(C)p.r(U)p.r(G)p.r(A)p.r(U)p.r(U)p.r(C)p.r(A)p.r(A)p.r(G)}$$$RNA1{StrandType:ss}|RNA2{StrandType:as}$”: 94% and 92%; for “RNA1{r(A)p.r(G)p.r(A)p.r(G)p.r(G)p.r(A)p.r(C)p.r(C)p.m(U)p.r(A)p.r(G)p.r(A)p.r(A)p.r(G)p.r(G)p.r(C)p.r(G)p.r(G)p.r(C)p.r(T)p.r(T)}|RNA2{r(G)p.r(C)p.r(C)p.r(G)p.r(C)p.r(C)p.r(U)p.r(U)p.r(C)p.m(U)p.r(A)p.r(G)p.r(G)p.r(U)p.r(C)p.r(C)p.r(U)p.r(C)p.r(U)p.r(T)p.r(T)}$$$RNA1{StrandType:ss}|RNA2{StrandType:as}$”: 89%. The same measure for “RNA1{r(A)p.r(U)p.r(C)p.r(A)p.r(G)p.r(A)p.r(G)p.r(G)p.r(G)p.r(A)p.r(G)p.r(G)p.r(U)p.r(C)p.r(U)p.m(U)p.r(A)p.r(G)p.r(A)p.r(T)p.r(T)}|RNA2{r(U)p.r(C)p.m(U)p.r(A)p.r(A)p.r(G)p.r(A)p.r(C)p.r(C)p.r(U)p.r(C)p.r(C)p.r(C)p.r(U)p.r(C)p.r(U)p.r(G)p.r(A)p.r(U)p.r(T)p.r(T)}$$$RNA1{StrandType:ss}|RNA2{StrandType:as}$”: 69%; for “RNA1{r(A)p.r(G)p.r(C)p.r(U)p.r(C)p.r(U)p.r(U)p.m(U)p.r(G)p.r(U)p.m(C)p.r(A)p.r(C)p.m(C)p.r(U)p.m(C)p.r(U)p.r(C)p.r(U)p.r(T)p.r(T)}|RNA2{r(A)p.r(G)p.r(A)p.r(G)p.r(A)p.r(G)p.r(G)p.m(U)p.r(G)p.r(A)p.m(C)p.r(A)p.r(A)p.r(A)p.r(G)p.r(A)p.r(G)p.r(C)p.r(U)p.r(T)p.r(T)}$$$RNA1{StrandType:ss}|RNA2{StrandType:as}$”: 34%; for “RNA1{r(A)p.m(U)p.r(A)p.r(C)p.r(U)p.r(U)p.r(G)p.r(G)p.r(C)p.r(G)p.r(G)p.r(G)p.r(C)p.r(U)p.r(C)p.r(U)p.r(U)p.r(U)p.r(C)p.r(T)p.r(T)}|RNA2{r(G)p.r(A)p.r(A)p.r(A)p.r(G)p.r(A)p.r(G)p.r(C)p.r(C)p.r(C)p.r(G)p.r(C)p.r(C)p.r(A)p.r(A)p.r(G)p.r(U)p.r(A)p.r(U)p.r(T)p.r(T)}$$$RNA1{StrandType:ss}|RNA2{StrandType:as}$”: 48%. Substance “RNA1{r(C)p.r(G)p.r(U)p.r(A)p.r(C)p.r(G)p.r(C)p.r(G)p.r(G)p.r(A)p.r(A)p.r(U)p.r(A)p.r(C)p.r(U)p.r(U)p.r(C)p.r(G)p.r(A)p.r(T)p.r(T)}|RNA2{r(U)p.r(C)p.r(G)p.r(A)p.r(A)p.r(G)p.r(U)p.r(A)p.r(U)p.r(U)p.r(C)p.r(C)p.r(G)p.r(C)p.r(G)p.r(U)p.r(A)p.[s4r](C)p.[s4r](G)p.r(T)p.r(T)}$$$RNA1{StrandType:ss}|RNA2{StrandType:as}$” returned a target mRNA knockdown of 90.2%.

“RNA1{m(G)p.r(C)p.m(U)p.r(G)p.m(A)p.r(G)p.m(G)p.r(A)p.m(A)p.r(A)p.m(G)p.r(G)p.m(G)p.r(A)p.m(C)p.r(A)p.m(U)p.r(C)p.m(U)p.r(T)p.r(T)}|RNA2{r(A)p.r(G)p.r(A)p.r(U)p.r(G)p.r(U)p.r(C)p.r(C)p.r(C)p.r(U)p.r(U)p.r(U)p.r(C)p.r(C)p.r(U)p.r(C)p.r(A)p.r(G)p.r(C)p.r(T)p.r(T)}$$$RNA1{StrandType:ss}|RNA2{StrandType:as}$”: the target mRNA knockdown was determined as 61%.

For “RNA1{r(C)p.r(G)p.r(U)p.r(A)p.r(C)p.r(G)p.r(C)p.r(G)p.r(G)p.r(A)p.r(A)p.r(U)p.r(A)p.r(C)p.r(U)p.r(U)p.r(C)p.r(G)p.r(A)p.r(T)p.r(T)}|RNA2{r(U)p.r(C)p.r(G)p.r(A)p.r(A)p.r(G)p.r(U)p.r(A)p.r(U)p.r(U)p.r(C)p.r(C)p.r(G)p.m(C)p.m(G)p.m(U)p.m(A)p.m(C)p.m(G)p.r(T)p.r(T)}$$$RNA1{StrandType:ss}|RNA2{StrandType:as}$”, the target mRNA knockdown is 30.8%.

In the case of “RNA1{r(G)p.r(A)p.r(C)p.r(G)p.[hna](U)p.r(A)p.r(A)p.[hna](A)p.r(C)p.r(G)p.[hna](G)p.r(C)p.r(C)p.[hna](A)p.r(C)p.r(A)p.r(A)p.r(G)p.r(U)p.[hna](U)p.d(T)}|RNA2{r(A)p.[hna](C)p.r(U)p.r(U)p.r(G)p.r(U)p.r(G)p.r(G)p.r(C)p.r(C)p.r(G)p.r(U)p.r(U)p.r(U)p.r(A)p.r(C)p.r(G)p.[hna](U)p.[hna](C)p.[hna](G)p.d(T)}$$$RNA1{StrandType:ss}|RNA2{StrandType:as}$”, the target mRNA knockdown was found to be 11.9%. “RNA1{r(G)p.r(A)p.r(C)p.r(G)p.[hna](U)p.r(A)p.r(A)p.[hna](A)p.r(C)p.r(G)p.[hna](G)p.r(C)p.r(C)p.[hna](A)p.r(C)p.r(A)p.r(A)p.r(G)p.r(U)p.[hna](U)p.d(T)}|RNA2{r(A)p.r(C)p.r(U)p.r(U)p.r(G)p.r(U)p.r(G)p.r(G)p.r(C)p.r(C)p.r(G)p.r(U)p.r(U)p.r(U)p.r(A)p.r(C)p.r(G)p.[hna](U)p.[hna](C)p.[hna](G)p.d(T)}$$$RNA1{StrandType:ss}|RNA2{StrandType:as}$” had a target mRNA knockdown of 48.7%.

The substance “RNA1{[s4r](C)p.[s4r](G)p.[s4r](U)p.[s4r](A)p.r(C)p.r(G)p.r(C)p.r(G)p.r(G)p.r(A)p.r(A)p.r(U)p.r(A)p.r(C)p.r(U)p.r(U)p.r(C)p.r(G)p.r(A)p.r(T)p.r(T)}|RNA2{r(U)p.r(C)p.r(G)p.r(A)p.r(A)p.r(G)p.r(U)p.r(A)p.r(U)p.r(U)p.r(C)p.r(C)p.r(G)p.r(C)p.r(G)p.r(U)p.r(A)p.r(C)p.r(G)p.r(T)p.r(T)}$$$RNA1{StrandType:ss}|RNA2{StrandType:as}$” registered a target mRNA knockdown of 94.2%. “RNA1{r(A)p.r(A)p.r(C)p.r(U)p.r(U)p.r(C)p.m(U)p.r(G)p.r(G)p.r(G)p.r(A)p.r(G)p.r(C)p.r(C)p.r(U)p.r(C)p.m(C)p.r(A)p.r(A)p.r(T)p.r(T)}|RNA2{r(U)p.m(U)p.r(G)p.r(G)p.r(A)p.r(G)p.r(G)p.r(C)p.r(U)p.r(C)p.r(C)p.m(C)p.r(A)p.r(G)p.r(A)p.r(A)p.r(G)p.r(U)p.r(U)p.r(T)p.r(T)}$$$RNA1{StrandType:ss}|RNA2{StrandType:as}$”: the target mRNA knockdown was 69%. For “RNA1{r(G)p.r(A)p.r(C)p.r(G)p.r(U)p.r(A)p.r(A)p.r(A)p.r(C)p.r(G)p.r(G)p.r(C)p.r(C)p.r(A)p.r(C)p.r(A)p.r(A)p.r(G)p.[hna](U)p.[hna](U)p.r(C)}|RNA2{r(A)p.r(C)p.r(U)p.r(U)p.r(G)p.r(U)p.r(G)p.r(G)p.r(C)p.r(C)p.r(G)p.r(U)p.r(U)p.r(U)p.r(A)p.r(C)p.r(G)p.r(U)p.[lna](C)p.[lna](G)p.r(C)}$$$RNA1{StrandType:ss}|RNA2{StrandType:as}$”, the target mRNA knockdown was 83.8%. The same measure for “RNA1{r(C)p.[fl2r](U)p.r(A)p.r(G)p.r(A)p.r(G)p.r(G)p.[fl2r](A)p.r(U)p.r(C)p.r(U)p.[fl2r](U)p.r(G)p.r(A)p.r(A)p.r(G)p.r(A)p.r(C)p.r(C)p.r(T)p.r(T)}|RNA2{r(G)p.r(G)p.r(U)p.r(C)p.r(U)p.r(U)p.r(C)p.r(A)p.r(A)p.r(G)p.r(A)p.r(U)p.r(C)p.r(C)p.r(U)p.r(C)p.[fl2r](U)p.r(A)p.r(G)p.r(T)p.r(T)}$$$RNA1{StrandType:ss}|RNA2{StrandType:as}$”: 78%.

Take “RNA1{[s4r](C)p.r(G)p.[s4r](U)p.r(A)p.[s4r](C)p.r(G)p.[s4r](C)p.r(G)p.r(G)p.r(A)p.r(A)p.[s4r](U)p.r(A)p.[s4r](C)p.[s4r](U)p.[s4r](U)p.[s4r](C)p.r(G)p.r(A)p.r(T)p.r(T)}|RNA2{r(U)p.r(C)p.r(G)p.r(A)p.r(A)p.r(G)p.r(U)p.r(A)p.r(U)p.r(U)p.r(C)p.r(C)p.r(G)p.r(C)p.r(G)p.r(U)p.r(A)p.r(C)p.r(G)p.r(T)p.r(T)}$$$RNA1{StrandType:ss}|RNA2{StrandType:as}$”: the target mRNA knockdown was determined as 92.9%. Substance “RNA1{r(U)p.m(U)p.r(A)p.r(A)p.r(G)p.r(G)p.r(A)p.r(G)p.r(A)p.r(A)p.r(G)p.r(C)p.m(U)p.r(G)p.r(A)p.r(C)p.r(G)p.r(G)p.r(C)p.r(T)p.r(T)}|RNA2{r(G)p.r(C)p.r(C)p.r(G)p.r(U)p.m(C)p.r(A)p.r(G)p.r(C)p.r(U)p.r(U)p.r(C)p.r(U)p.r(C)p.r(C)p.r(U)p.m(U)p.r(A)p.r(A)p.r(T)p.r(T)}$$$RNA1{StrandType:ss}|RNA2{StrandType:as}$” registered a target mRNA knockdown of 67%. The same measure for “RNA1{r(A)p.r(G)p.r(A)p.r(C)p.[fl2r](U)p.r(A)p.r(A)p.r(G)p.r(C)p.r(C)p.[fl2r](C)p.r(A)p.r(A)p.r(A)p.r(A)p.r(G)p.r(G)p.r(G)p.r(C)p.r(T)p.r(T)}|RNA2{r(G)p.r(C)p.r(C)p.r(C)p.r(U)p.r(U)p.r(U)p.[fl2r](U)p.r(G)p.r(G)p.r(G)p.r(C)p.r(U)p.[fl2r](U)p.r(A)p.r(G)p.r(U)p.r(C)p.r(U)p.r(T)p.r(T)}$$$RNA1{StrandType:ss}|RNA2{StrandType:as}$”: 45%.
